This is an account of results in US8084466B2, “Bicyclic heteroaryl-substituted imidazoles as modulators of the histamine H4 receptor” (Janssen Pharmaceutica NV, priority 2007, dated 2011).

Some results are limits rather than exact numbers.

T1 sequence (Q9H3N8 whole entry): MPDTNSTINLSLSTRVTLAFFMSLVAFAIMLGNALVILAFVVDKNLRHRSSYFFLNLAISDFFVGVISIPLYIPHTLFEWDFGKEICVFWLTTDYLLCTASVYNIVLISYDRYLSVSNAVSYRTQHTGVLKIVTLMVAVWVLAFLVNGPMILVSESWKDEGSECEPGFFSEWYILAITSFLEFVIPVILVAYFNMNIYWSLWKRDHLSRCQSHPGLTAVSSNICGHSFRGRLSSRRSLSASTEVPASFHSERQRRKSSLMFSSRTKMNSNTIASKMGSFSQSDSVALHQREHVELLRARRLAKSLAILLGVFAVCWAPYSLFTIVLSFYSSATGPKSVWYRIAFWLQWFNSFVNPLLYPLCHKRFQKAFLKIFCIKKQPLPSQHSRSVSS

This assay addresses T1, human histamine H4 receptor (Homo sapiens, UniProt Q9H3N8).
T1 construct: expressed in transfected cells; host or cells: SK-N-MC cells or COS7 cells, transient transfection with pH4R; cell membranes
Kind of assay: Binding Assay on Recombinant Human Histamine H4 Receptor. Particulars: competition binding with 3H-histamine (5 nM; KD 5 nM), membranes of SK-N-MC or COS7 cells expressing human H4 receptor; average of results; > = highest value tested. The method, then:
Biological Methods: Binding Assay on Recombinant Human Histamine H4 Receptor
SK-N-MC cells or COS7 cells were transiently transfected with pH4R and grown in 150 cm^2 tissue culture dishes. Cells were washed with saline solution, scraped with a cell scraper and collected by centrifugation (1000 rpm, 5 min). Cell membranes were prepared by homogenization of the cell pellet in 20 mM Tris-HCl with a polytron tissue homogenizer for 10 sec at high speed. Homogenate was centrifuged at 1000 rpm for 5 min at 4° C. The supernatant was then collected and centrifuged at 20,000×g for 25 min at 4° C. The final pellet was resuspended in 50 mM Tris-HCl. Cell membranes were incubated with ^3H-histamine (5-70 nM) in the presence or absence of excess histamine (10,000 nM). Incubation occurred at room temperature for […]. Membranes were harvested by rapid filtration over Whatman GF/C filters and washed 4 times with ice-cold 50 mM Tris HCl. Filters were then dried, mixed with scintillant and counted for radioactivity. SK-N-MC or COS7 cells expressing human histamine H4 receptor were used to measure the affinity of binding of other compounds and their ability to displace ^3H-ligand binding by incubating the above-described reaction in the presence of various concentrations of inhibitor or compound to be tested. For competition binding studies using ^3H-histamine, Ki values were calculated, based on an experimentally determined KD value of 5 nM and a ligand concentration of 5 nM, according to Y.-C.
For `Cc1cc(C)c2nc(-c3ccc4c(ccn4CCCC4CCN(C)CC4)c3Cl)[nH]c2c1` [Example 9, 2-{4-Chloro-1-[3-(1-methyl-piperidin-4-yl)-propyl]-1H-indol-5-yl}-4,6-dimethyl-1H-benzoimidazole], the Ki (usually the equilibrium dissociation constant of an inhibitor or competing ligand from its target) worked out at 14 nM.

As for `Cc1ccc2[nH]c(-c3cc4ccn(CCCC5CCNCC5)c4cc3Cl)nc2c1C` [Example 100, 2-[6-Chloro-1-(3-piieridin-4-yl-propyl)-1H-indol-5-yl]-4,5-dimethyl-1H-benzoimidazole], the Ki worked out at 3330 nM. As for `Cc1cc(C)c2nc(-c3cccc4c3ccn4CCCCC3CCNCC3)[nH]c2c1` [Example 139, 4,6-Dimethyl-2-[1-(4-piperidin-4-yl-butyl)-1H-indol-4-yl]-1H-benzoimidazole], the figure is 2640 nM; as for `c1ccc2cc3[nH]c(-c4cccc5c4ccn5CCCCC4CCNCC4)nc3cc2c1` [Example 127, 2-[1-(4-Piperidin-4-yl-butyl)-1H-indol-4-yl]-1H-naphtho[2,3-d]imidazole], 2100 nM; as for `Cc1c(F)ccc2[nH]c(-c3ccc4c(c3)c(Cl)cn4CCCC3CCNCC3)nc12` [Example 87, 2-[3-Chloro-1-(3-piperidin-4-yl-propyl)-1H-indol-5-yl]-5-fluoro-4-methyl-1H-benzoimidazole], 1830 nM. As for `CN1CCC(CCCCn2ccc3c(-c4nc5cc(C(F)(F)F)ccc5[nH]4)cccc32)CC1` [Example 18, 2-{1-[4-(1-Methyl-piperidin-4-yl)-butyl]-1H-indol-4-yl}-5-trifluoromethyl-1H-benzoimidazole], the figure is 85 nM. With `Cc1cccc2[nH]c(-c3cccc4c3ccn4CCCCC3CCNCC3)nc12` [Example 66, 4-Methyl-2-[1-(4-piperidin-4-yl-butyl)-1H-indol-4-yl]-1H-benzoimidazole] the figure was 1180 nM. As for `Cc1c(F)ccc2[nH]c(-c3ccc4c(c3F)CCN4CCCC3CCN(C)CC3)nc12` [Example 6, 5-Fluoro-2-{4-fluoro-1-[3-(1-methyl-piperidin-4-yl)-propyl]-2,3-dihydro-1H-indol-5-yl}-4-methyl-1H-benzoimidazole], the Ki is 123 nM. Take `Cc1cc(Cl)cc2[nH]c(-c3ccc4ccn(CCCCC5CCNCC5)c4c3)nc12` [Example 108]: the Ki came to 2000 nM. As to `Cc1[nH]c(-c2ccc3c(ccn3CCCN3CCN(C)CC3)c2)nc1-c1cccc(C(F)(F)F)c1` [Example 79, 1-[3-(4-Methyl-piperazin-1-yl)-propyl]-5-[5-methyl-4-(3-trifluoromethyl-phenyl)-1H-imidazol-2-yl]-1H-indole], the Ki amounted to 228 nM. For the compound `Cc1c(F)ccc2[nH]c(-c3cccc4c3ccn4CCCCC3CCNCC3)nc12` [Example 35, 5-Fluoro-4-methyl-2-[1-(4-piperidin-4-yl-butyl)-1H-indol-4-yl]-1H-benzoimidazole], the Ki is 683 nM.

As to `Cc1cccc2[nH]c(-c3cccc4c3ccn4CCCCC3CCN(C)CC3)nc12` [Example 23, 4-Methyl-2-{1-[4-(1-methyl-piperidin-4-yl)-butyl]-1H-indol-4-yl}-1H-benzoimidazole], the inhibition constant Ki worked out at 98 nM. With `Cc1cccc2[nH]c(-c3ccc4c(c3)ncn4CCCCC3CCNCC3)nc12` [Example 117, 4-Methyl-1′-(4-piperidin-4-yl-butyl)-1H,1′H-[2.5′]bibenzoimidazolyl], the Ki was over 10000 nM. `Cc1cc(C)c2nc(-c3ccc4c(c3C)CCN4CCCC3CCN(C)CC3)[nH]c2c1` [Example 57, 4,6-Dimethyl-2-{4-methyl-1-[3-(1-methyl-piperidin-4-yl)-propyl]-2,3-dihydro-1H-indol-5-yl}-1H-benzoimidazole]: the Ki was 5 nM. On to `Cc1cc(C)c2nc(-c3ccc4ccn(CCCCC5CCNCC5)c4c3)[nH]c2c1` [Example 37, 4,6-Dimethyl-2-[1-(4-piperidin-4-yl-butyl)-1H-indol-6-yl]-1H-benzoimidazole], for which the Ki came to 2230 nM.

Regarding `Cc1ccc2[nH]c(-c3cccc4c3c(Cl)cn4CCCCC3CCNCC3)nc2c1C` [Example 73, 2-[3-Chloro-1-(4-piperidin-4-yl-butyl)-1H-indol-4-yl]-4,5-dimethyl-1H-benzoimidazole], the Ki was 1710 nM.

In the case of `CCCc1[nH]c(-c2ccc3c(ncn3CCCC3CCN(C)CC3)c2C)nc1C` [Example 81, 4-Methyl-1-[3-(1-methyl-piperidin-4-yl)-propyl]-5-(4-methyl-5-propyl-1H-imidazol-2-yl)-1H-benzoimidazole], the Ki was found to be 953 nM. As for `Cc1cc(Cl)cc2[nH]c(-c3ccc4c(c3)c(Cl)cn4CCCC3CCN(C)CC3)nc12` [Example 29, 6-Chloro-2-{3-chloro-1-[3-(1-methyl-piperidin-4-yl)-propyl]-1H-indol-5-yl}-4-methyl-1H-benzoimidazole], the figure is 1670 nM; as for `Cc1ccc2[nH]c(-c3ccc4c(c3C)CCN4CCCC3CCN(C)CC3)nc2c1C` [Example 2, 4,5-Dimethyl-2-{4-methyl-1-[3-(1-methyl-piperidin-4-yl)-propyl]-2,3-dihydro-1H-indol-5-yl}-1H-benzoimidazole], 15 nM; as for `Fc1ccc2[nH]c(-c3cccc4c3c(Cl)cn4CCCCC3CCNCC3)nc2c1F` [Example 132, 2-[3-Chloro-1-(4-piperidin-4-yl-butyl)-1H-indol-4-yl]-4,5-difluoro-1H-benzoimidazole], 3330 nM.

On to `Cc1c(-c2nc3cc(Cl)ccc3[nH]2)ccc2c1CCN2CCCC1CCN(C)CC1` [Example 58, 5-Chloro-2-{4-methyl-1-[3-(1-methyl-piperidin-4-yl)-propyl]-2,3-dihydro-1H-indol-5-yl}-1H-benzoimidazole], for which the Ki turned out to be 19 nM. `CN1CCC(CCCCn2cnc3ccc(-c4nc5cc(F)ccc5[nH]4)cc32)CC1` [Example 126, 5-Fluoro-3′-[4-(1-methyl-piperidin-4-yl)-butyl]-1H,3′H [2,5′]bibenzoimidazolyl]: the Ki was over 10000 nM. Take `Cc1ccc2[nH]c(-c3cnc4c(ccn4CCCC4CCN(C)CC4)c3)nc2c1C` [Example 47, 4,5-Dimethyl-2-{1-[3-(1-methyl-piperidin-4-yl)-propyl]-1H-pyrrolo[2,3-b]pyridin-5-yl}-1H-benzoimidazole]: the Ki is 56 nM. With `Cc1c(F)ccc2[nH]c(-c3ccc4c(c3)c(CN(C)C)cn4CCCC3CCN(C)CC3)nc12` [Example 86, {5-(5-Fluoro-4-methyl-1H-benzoimidazol-2-yl)-1-[3-(1-methyl-piperidin-4-yl)-propyl]-1H-indol-3-ylmethyl}-dimethyl-amine] the figure was over 10000 nM.

For `Cc1cccc2[nH]c(-c3ccc4c(ccn4CCCC4CCN(C)CC4)c3)nc12` [Example 12, 4-Methyl-2-{1-[3-(1-methyl-piperidin-4-yl)-propyl]-1H-indol-5-yl}-1H-benzoimidazole], the Ki amounted to 120 nM. Regarding `FC(F)(F)c1ccc2nc(-c3cccc4c3ccn4CCCCC3CCNCC3)[nH]c2c1` [Example 141, 2-[1-(4-Piperidin-4-yl-butyl)-1H-indol-4-yl]-6-trifluoromethyl-1H-benzoimidazole], the Ki came out at 2170 nM. For the compound `Cc1cc(Cl)cc2[nH]c(-c3cccc4c3ccn4CCCCC3CCN(C)CC3)nc12` [Example 22, 6-Chloro-4-methyl-2-{1-[4-(1-methyl-piperidin-4-yl)-butyl]-1H-indol-4-yl}-1H-benzoimidazole], the Ki came to 105 nM. `Cc1c(F)ccc2[nH]c(-c3cc4ccn(CCCC5CCNCC5)c4cc3Cl)nc12` [Example 49, 2-[6-Chloro-1-(3-piperidin-4-yl-propyl)-1H-indol-5-yl]-5-fluoro-4-methyl-1H-benzoimidazole]: the Ki was determined as 1730 nM.

Consider `Cc1cccc2[nH]c(-c3ccc4ccn(CCCCC5CCNCC5)c4c3)nc12` [Example 107, 4-Methyl-2-[1-(4-piperidin-4-yl-butyl)-1H-indol-6-yl]-1H-benzoimidazole], for which the Ki was over 10000 nM.

`Cc1ccc(-c2nc(-c3ccc4c(ncn4CCCC4CCN(C)CC4)c3C)[nH]c2-c2ccc(Cl)cc2)cc1` [Example 85]: the Ki came to 5 nM.

`Cc1ccc2[nH]c(-c3ccc4c(ncn4CCCC4CCNCC4)c3C)nc2c1C` [Example 138, 4,5,4′-Trimethyl-1′-(3-piperidin-4-yl-propyl)-1H,1′H-[2,5′]bibenzoimidazolyl]: the Ki came to 429 nM. `Cc1c(F)ccc2[nH]c(-c3ccc4c(c3Cl)CCN4CCCC3CCN(C)CC3)nc12` [Example 4, 2-{4-Chloro-1-[3-(1-methyl-piperidin-4-yl)-propyl]-2,3-dihydro-1H-indol-5-yl}-5-fluoro-4-methyl-1H-benzoimidazole]: the Ki turned out to be 34 nM. With `Cc1cccc2[nH]c(-c3ccc4ccn(CCCCC5CCN(C)CC5)c4c3)nc12` [Example 27, 4-Methyl-2-{1-[4-(1-methyl-piperidin-4-yl)-butyl]-1H-indol-6-yl}-1H-benzoimidazole] the figure was 750 nM. In the case of `CN1CCC(CCCCn2ccc3c(-c4nc5ccc6ccccc6c5[nH]4)cccc32)CC1` [Example 71, 2-{1-[4-(1-Methyl-piperidin-4-yl)-butyl]-1H-indol-4-yl}-1H-naphtho[1,2-d]imidazole], the Ki was 802 nM.
